Measurements reported in US20080141384A1, “Composition For Screening Anti-Hypertension Drug Comprising Mammal Tctp Gene or Its Protein Product, and Method For Screening Anti-Hypertension Drug Using Said Composition” (EWHA UNIVERSITY INDUSTRY COLLABORATION FOUNDATION, priority 2003, published 2008).

Assays:
Na/K APTase pump [1] = test: Na/K APTase pump activity by 86Rb+ uptake in RBL-2H3 cells; format: cell-based; conditions: 10-20 μg/ml TCTP added, 86Rb+ tracer, versus control without TCTP, FIG. 1a
Description: The Na/K APTase pump inhibitory activity of the TCTP protein contained in the inventive composition was examined. As it was already known that TCTP interacts with the Na/K APTase pump, a test was performed to examine if the interaction has any effect on the activity of the Na/K APTase pump inhibitory activity.
RBL-2H3 cells were cultured at a suitable density and washed three times with Krebs-Ringer buffer (KRP, 140 mM NaCl, 5 mM KCl, 10 mM Na2HPO4, 1 mM MgSO4, 1.4 mM CaCl2, 2.5 mM glucose, pH 7.4). Subsequently, the cells were incubated at 37° C. for 15 minutes, and added with 0.1% BSA-containing KRP buffer containing 1 mM ouabain.
To measure the transport of K^+ ions caused by the Na/K APTase pump, cultivation was performed for 5-10 minutes using an ^86Rb^+([…], NEN) tracer having high sensitivity to ouabain, and 10-20 μg/ml TCTP was added. Also, a control group to which TCTP had not been added was prepared.

Na/K APTase pump [2] = test: FACS analysis of intracellular Na+ using a Na-sensitive dye; format: cell-based; conditions: FACS with Na-sensitive dye, versus control group (Mock); FIG. 1b
Description: To confirm the above results again, FACS analysis was performed using a Na-sensitive dye.

Na/K-ATPase pump = test: cell-based or functional assay

Substance	activity of the Na/K APTase pump (reduced to) (Na/K APTase pump [1]) [%]	intracellular Na+ concentration (Na/K APTase pump [2])	activity of the Na/K APTase pump (ouabain-sensitive 86Rb+ uptake in RBL-2H3 cells, 10-20 ug/ml TCTP against a control without TCTP) (Na/K-ATPase pump) [%]
TCTP: Translationally controlled tumor protein (IgE-dependent histamine-releasing factor), amino acid sequence of SEQ ID NO: 2; cytoplasmic inhibitor of the Na/K-ATPase pump	53.5	increased the intracellular Na^+ concentration	
Translationally controlled tumor protein (TCTP) (from UniProt P13693 1-172)			53.5
